Read-outs that look alike come from different tables or passages of the source.
Test system: cancer cells
Test: Survival rate of cancer cells after test compound is added (flow cytometry, Annexin V-FITC/PI, clinical specimen)
Format: cell-based, patient
Conditions: Homo sapiens, 18 h, read-out: Survival rate (%) All cells (Stem cells and ordinary cells)
Summary of the method: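 Mononuclear cells from fresh or cryopreserved clinical samples, isolated by Ficoll gradient and held in serum-free IMDM (1×10^6/mL), received compound for 18 h. After labelling with marker antibodies (CD34+CD38+ for AML), Annexin V-FITC and PI staining was analysed by flow cytometry.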

[1] = Head and neck squamous cell carcinomas

C=C1CC[C@H]2C(=C)CC[C@H]3C(=C)C(=O)O[C@@H]3[C@@H]12 [Compound 25]
viability at 10 µM (AML): 47% | viability at 20 µM (AML): 44% | viability at 10 µM (Brain glioma): 74% | viability at 20 µM (Brain glioma): 58% | viability at 10 µM (Brain tumor): 83% | viability at 20 µM (Brain tumor): 73% | viability at 10 µM (Breast cancer): 74% | viability at 20 µM (Breast cancer): 65% | viability at 10 µM (CLL): 57% | viability at 20 µM (CLL): 45% | viability at 10 µM (CML): 64% | viability at 20 µM (CML): 49% | viability at 10 µM (Children hepatoblastoma): 53% | viability at 20 µM (Children hepatoblastoma): 47% | viability at 10 µM (Colon adenocarcinoma): 55% | viability at 20 µM (Colon adenocarcinoma): 49% | viability at 10 µM (Colorectal cancer): 76% | viability at 20 µM (Colorectal cancer): 66% | viability at 10 µM (Gastric cancer): 54% | viability at 20 µM (Gastric cancer): 47% | viability at 10 µM (Gastrointestinal tumor): 63% | viability at 20 µM (Gastrointestinal tumor): 52% | viability at 10 µM (Glioma): 83% | viability at 20 µM (Glioma): 74% | viability at 10 µM [1]: 67% | viability at 20 µM [1]: 58% | viability at 10 µM (Laryngeal cancer): 74% | viability at 20 µM (Laryngeal cancer): 64% | viability at 10 µM (Liver cancer): 65% | viability at 20 µM (Liver cancer): 54% | viability at 10 µM (Lung adenocarcinoma): 57% | viability at 20 µM (Lung adenocarcinoma): 46% | viability at 10 µM (Lung cancer): 54% | viability at 20 µM (Lung cancer): 37% | viability at 10 µM (Malignant melanoma): 81% | viability at 20 µM (Malignant melanoma): 66% | viability at 10 µM (Nasopharynx cancer): 54% | viability at 20 µM (Nasopharynx cancer): 48% | viability at 10 µM (Ovarian cancer): 76% | viability at 20 µM (Ovarian cancer): 67% | viability at 10 µM (Pancreatic cancer): 64% | viability at 20 µM (Pancreatic cancer): 48% | viability at 10 µM (Prostate cancer): 56% | viability at 20 µM (Prostate cancer): 44% | viability at 10 µM (Retinoblastoma): 64% | viability at 20 µM (Retinoblastoma): 54% | viability at 10 µM (Skin cancer): 66% | viability at 20 µM (Skin cancer): 58%

C=C1C(=O)O[C@@H]2[C@@H]3[C@@H](CC[C@@]3(C)O)[C@](C)(O)CC[C@@H]12 [Compound 49]
viability at 10 µM (AML): 92% | viability at 20 µM (AML): 89% | viability at 10 µM (Brain glioma): 88% | viability at 20 µM (Brain glioma): 87% | viability at 10 µM (Brain tumor): 88% | viability at 20 µM (Brain tumor): 87% | viability at 10 µM (Breast cancer): 89% | viability at 20 µM (Breast cancer): 87% | viability at 10 µM (CLL): 91% | viability at 20 µM (CLL): 85% | viability at 10 µM (CML): 90% | viability at 20 µM (CML): 86% | viability at 10 µM (Children hepatoblastoma): 93% | viability at 20 µM (Children hepatoblastoma): 92% | viability at 10 µM (Colon adenocarcinoma): 93% | viability at 20 µM (Colon adenocarcinoma): 86% | viability at 10 µM (Colorectal cancer): 88% | viability at 20 µM (Colorectal cancer): 85% | viability at 10 µM (Gastric cancer): 92% | viability at 20 µM (Gastric cancer): 89% | viability at 10 µM (Gastrointestinal tumor): 92% | viability at 20 µM (Gastrointestinal tumor): 89% | viability at 10 µM (Glioma): 88% | viability at 20 µM (Glioma): 89% | viability at 10 µM [1]: 91% | viability at 20 µM [1]: 87% | viability at 10 µM (Laryngeal cancer): 91% | viability at 20 µM (Laryngeal cancer): 88% | viability at 10 µM (Liver cancer): 93% | viability at 20 µM (Liver cancer): 86% | viability at 10 µM (Lung adenocarcinoma): 91% | viability at 20 µM (Lung adenocarcinoma): 88% | viability at 10 µM (Lung cancer): 88% | viability at 20 µM (Lung cancer): 82% | viability at 10 µM (Malignant melanoma): 88% | viability at 20 µM (Malignant melanoma): 87% | viability at 10 µM (Nasopharynx cancer): 93% | viability at 20 µM (Nasopharynx cancer): 86% | viability at 10 µM (Ovarian cancer): 93% | viability at 20 µM (Ovarian cancer): 88% | viability at 10 µM (Pancreatic cancer): 87% | viability at 20 µM (Pancreatic cancer): 83% | viability at 10 µM (Prostate cancer): 92% | viability at 20 µM (Prostate cancer): 89% | viability at 10 µM (Retinoblastoma): 92% | viability at 20 µM (Retinoblastoma): 89% | viability at 10 µM (Skin cancer): 93% | viability at 20 µM (Skin cancer): 86%

CN(C)C[C@@H]1C(=O)O[C@H]2[C@H]1CCC1(CC1)[C@@H]1CCC3(CC3)[C@H]21 [Compound 27]
viability at 10 µM (AML): 90% | viability at 20 µM (AML): 86% | viability at 10 µM (Brain glioma): 91% | viability at 20 µM (Brain glioma): 88% | viability at 10 µM (Brain tumor): 94% | viability at 20 µM (Brain tumor): 87% | viability at 10 µM (Breast cancer): 88% | viability at 20 µM (Breast cancer): 85% | viability at 10 µM (CLL): 93% | viability at 20 µM (CLL): 88% | viability at 10 µM (CML): 94% | viability at 20 µM (CML): 87% | viability at 10 µM (Children hepatoblastoma): 88% | viability at 20 µM (Children hepatoblastoma): 87% | viability at 10 µM (Colon adenocarcinoma): 89% | viability at 20 µM (Colon adenocarcinoma): 87% | viability at 10 µM (Colorectal cancer): 93% | viability at 20 µM (Colorectal cancer): 86% | viability at 10 µM (Gastric cancer): 87% | viability at 20 µM (Gastric cancer): 83% | viability at 10 µM (Gastrointestinal tumor): 90% | viability at 20 µM (Gastrointestinal tumor): 86% | viability at 10 µM (Glioma): 88% | viability at 20 µM (Glioma): 82% | viability at 10 µM [1]: 87% | viability at 20 µM [1]: 83% | viability at 10 µM (Laryngeal cancer): 92% | viability at 20 µM (Laryngeal cancer): 89% | viability at 10 µM (Liver cancer): 90% | viability at 20 µM (Liver cancer): 86% | viability at 10 µM (Lung adenocarcinoma): 89% | viability at 20 µM (Lung adenocarcinoma): 86% | viability at 10 µM (Lung cancer): 88% | viability at 20 µM (Lung cancer): 81% | viability at 10 µM (Malignant melanoma): 91% | viability at 20 µM (Malignant melanoma): 85% | viability at 10 µM (Nasopharynx cancer): 91% | viability at 20 µM (Nasopharynx cancer): 85% | viability at 10 µM (Ovarian cancer): 88% | viability at 20 µM (Ovarian cancer): 84% | viability at 10 µM (Pancreatic cancer): 93% | viability at 20 µM (Pancreatic cancer): 92% | viability at 10 µM (Prostate cancer): 91% | viability at 20 µM (Prostate cancer): 88% | viability at 10 µM (Retinoblastoma): 94% | viability at 20 µM (Retinoblastoma): 86% | viability at 10 µM (Skin cancer): 94% | viability at 20 µM (Skin cancer): 81%

Source: patent US10463644B2, “Uses of sesquiterpene lactone compounds and their derivatives in drugs preparation” (ACCENDATECH, priority 2013, dated 2019)
